Assay results from PMC10844353, “Dose–response effects on HbA1c and bodyweight reduction of survodutide, a dual glucagon/GLP-1 receptor agonist, compared with placebo and open-label semaglutide in people with type 2 diabetes: a randomised clinical trial” (Diabetologia, 2023).

Legend:
[1] = test system: participants with type 2 diabetes; test: Phase II trial: adverse events (safety and tolerability); type: in vivo, human; details: up to 1.0 mg qw open-label
Description: (VAS), the Patient’s Global Impression of Severity (PGI-S) for difficulty to control eating behaviours and the 7-point profile of self-monitoring of blood glucose (SMBG).
At each study visit, participants were advised to adhere to the specific recommended diet and exercise plan provided to them during diet and exercise counselling throughout the study.
Survodutide was made available in vials (2 mg/ml, 1 ml fill volume per vial) for dose escalation in Weeks 1–6 and in pre-filled syringes (various concentrations, 0.5 ml fill volume) for maintenance dose in Weeks 7–16. The placebo solution (isotonic sodium chloride) was filled into identical vials or pre-filled syringes. […]
Safety and tolerability were assessed based on the general occurrence of treatment -emergent adverse even ts, safety laboratory parameters, physical examination, vital sign measurements and 12 -lead ECG . ECG services were externally provided and recordings were evaluated centrally.
(§1) MMRM, as for the primary endpoint, and descriptive statistics. All safety endpoints, NASH-related scores and SMBG were analysed descriptively. […]

[2] = test system: participants with type 2 diabetes; test: Phase II trial: exploratory biomarkers and NASH-related scores, change from baseline at EoT; type: in vivo, human; details: up to 1.0 mg qw open-label, after 16 weeks
Description: Pharmacodynamic endpoints were the changes from baseline in exploratory biomarkers related to liver function and fatty liver disease (plasma levels of cytokeratin 18 and Pro-C3 and enhanced liver fibrosis [ELF] score), glucose metabolism (adiponectin and fasting insulin and C-peptide levels) and target receptor engagement (amino acid and glucagon levels). Exploratory NASH-related scores (Fibrosis-4 [Fib-4] score, aspartate aminotransferase/platelet ratio [APRI] and non-alcoholic fatty liver disease [NAFLD] fibrosis score) were assessed as safety-related endpoints.
HbA1c was assessed at screening, weeks 1, 5, 8, 12 and 16, EoT and follow-up and analysed centrally. Bodyweight was measured at every visit (screening, weeks 1–8, 12 and 16, EoT and follow-up). Waist circumference was measured at screening, weeks 1 and 6 and EoT. Waist circumference was measured at the midpoint between the lowest rib and the iliac crest. Participants were provided with a glucose monitoring device for weekly use at home during the study. Participant-reported outcomes (Three-Factor Eating Questionnaire [TFEQ-R18 V2], Patient Global Impression of Severity [PGI-S] and a hunger visual analogue scale [VAS]) were assessed at weeks 1, 5 and 8 and EoT in a fasted state. […]
as §1

[3] = Phase II trial: pharmacokinetics (steady state, dose proportionality of trough concentrations); type: in vivo, human
Description: The attainment of steady state and dose proportionality of survodutide were assessed as pharmacokinetic endpoints.
HbA1c was assessed at screening, weeks 1, 5, 8, 12 and 16, EoT and follow-up and analysed centrally. Bodyweight was measured at every visit (screening, weeks 1–8, 12 and 16, EoT and follow-up). Waist circumference was measured at screening, weeks 1 and 6 and EoT. Waist circumference was measured at the midpoint between the lowest rib and the iliac crest. Participants were provided with a glucose monitoring device for weekly use at home during the study. Participant-reported outcomes (Three-Factor Eating Questionnaire [TFEQ-R18 V2], Patient Global Impression of Severity [PGI-S] and a hunger visual analogue scale [VAS]) were assessed at weeks 1, 5 and 8 and EoT in a fasted state. Blood sampling for pharmacokinetics was carried out at every visit (weeks 1–8, 12 and 16, EoT and follow-up) and blood sampling for exploratory biomarkers was carried out at weeks 1, 5, 8 and 12, EoT and follow-up. Safety assessments are described in the ESM Methods.

[4] = test system: people with type 2 diabetes or overweight/obesity; details: AWARD-5, 52 weeks; cited from earlier work
Description: Glucagon-like peptide-1 receptor (GLP-1R) agonists, such as liraglutide and semaglutide, have been developed for the treatment of both type 2 diabetes and obesity. […] Apart from the well-characterised gastrointestinal (GI) adverse events (AEs), GLP-1R agonists are generally well tolerated. ... || Survodutide (BI 456906) is a novel subcutaneous GCGR/GLP-1R dual agonist in development for the treatment of people with type 2 diabetes, obesity and non-alcoholic steatohepatitis (NASH). Addition of a C18 fatty acid into the acylated peptide, as a half-life-extending principle, allows for weekly administration of survodutide. […] In ... || In addition to semaglutide, other GLP-1R agonists now approved for the treatment of type 2 diabetes have been investigated in combination with background metformin therapy. […] The maximum reduct ... || (+ 2 further places)

[5] = in vivo; cited from earlier work

Substance: Semaglutide: GLP-1R agonist; open-label reference control, up to 1.0 mg qw
- Participants reporting severe AEs [1]: none
- Change from baseline in glucagon [2]: no relevant changes

Substance: Survodutide
- Time at which steady state appeared to be achieved (visually) ([3]; DG1–5, plasma trough concentrations): 8 week
- Time at which steady state appeared to be achieved (visually) ([3]; DG6, plasma trough concentrations): 12 week
- Dose proportionality of plasma trough concentrations ([3]; escalating weekly or biweekly sc doses): approximately dose-proportional

Substance: dulaglutide: GLP-1R agonist approved for the treatment of type 2 diabetes
- Bodyweight reduction [4]: –3.1 kg

Substance: oxyntomodulin: endogenous proglucagon derivative, GCGR/GLP-1R dual agonist
- Half-life [5]: very short
